Assay: Human HepG2 cell viability assay in 384 well format
Format: toxicity, cell-based
Design: dose 125 nL, time 70.5 hour; cytotoxicity at 70.5 h: concentration not given beside the values
Conditions: HepG2 cells, read-out: Inhibition

Row | SMILES | cytotoxicity at 70.5 h [%]
1 | Cn1nc(Cn2cccn2)c2c1CN(Cc1ccsc1)C2 | -1.91
2 | CC(C)NC(=O)C(NC(=O)N1CCN(c2ccc(Cl)cc2)CC1)C(C)C (centres undefined) | -13.3
3 | Cc1cc(CNc2cc(Cl)ccc2OCCS(C)(=O)=O)no1 | 13.3
4 | Cc1cc(CN(C)C(=O)Nc2ccccc2C)no1 | -4.53
5 | CC(C(=O)NCc1ccc(F)cc1)N(C)CCN1CCOCC1 (centres undefined) | 24.4
6 | CCC[C@H]1CN(c2cncc(C(=O)N(C)C)n2)C[C@@H]1N(C)C | 19.4
7 | CCOc1ccc(C(=O)Nc2c(C)nc3cccc(C)n3c2=O)cc1 | -19.3
8 | CCOCc1ncn2c1CN(C(=O)Nc1cccc(F)c1)CC2 | -13.3
9 | Cn1nc2c(c1NC(=O)c1ccc(Cl)s1)CCC2 | -8.38
10 | CCS(=O)(=O)N1CCC2(CC1)c1ncc(-c3cccnc3)n1CCN2C | -5.3
11 | Cn1cccc1C(=O)N1Cc2c(CN3CCCCC3)nn(C)c2C1 | 0.721
12 | Cc1noc(C2CCCN(Cn3cc(Cl)cn3)C2)n1 (centres undefined) | -1.46
13 | CN(C(=O)CCc1cccs1)C1CCCN(C2Cc3ccccc3C2)C1 (centres undefined) | -1.24
14 | Cc1nc(-c2nnc[nH]2)sc1C(=O)N1CCCC(C(F)(F)F)C1 (centres undefined) | -4.51
15 | CCCn1cnnc1-c1nc2c([nH]1)CC(c1ccc(Cl)cc1)CNC2=O (centres undefined) | 8.16
16 | CCc1nnc2n1CCN(Cc1ncc(-c3ccccc3)o1)C2 | -13.5
17 | CC(C)c1n[nH]c(C2CN(C(=O)CCc3cscn3)CCO2)n1 (centres undefined) | 13.2
18 | CN(C)CCN(Cc1ccc(C#N)cc1)C(=O)c1ccn(C)c(=O)c1 | 24.8
19 | CCNc1nc(C)c(C(=O)N2CCC(C(O)Cc3ccccc3)CC2)s1 (centres undefined) | -14.6
20 | CC(C)N1CC[C@H](c2nnc(Cc3c[nH]c4ccccc34)o2)C1 | -4.41
21 | CN(C)C(=O)N1CCc2ccc(=O)[nH]c2CC1 | -3.89
22 | COc1cc(CNCC(O)c2ccccc2F)cc2c1OCO2 (centres undefined) | -14
23 | CCCc1nc(CN(CC)C(=O)c2onc3ccccc23)no1 | 17

Row | SMILES | cytotoxicity at 70.5 h [%]
24 | CO[C@@H]1CC[C@@H](NS(=O)(=O)c2cn(C)nc2C)[C@H]1O | -1.72
25 | Cc1ccc(-c2nnc(CN3CC(n4cc(C)cn4)C3)o2)cc1 | -13.9
26 | CCCNC(=O)c1sccc1N(C)S(=O)(=O)c1ccc(Cl)cc1 | 20.9
27 | CC(C)c1cccc(CSc2nnc(CN3CCCC3=O)o2)n1 | -8
28 | CN1CCOC2(CCCN(C(=O)C3CCCCC3)C2)C1 (centres undefined) | 34.5
29 | Cc1ccccc1C(C)NC(=O)c1ccc(=O)n(C)c1 (centres undefined) | -4.64
30 | COc1ccc2c(c1)C(NCCc1ncc(C)s1)CCCO2 (centres undefined) | -7.84
31 | CN(CC1=CCCN(CCc2ccccn2)C1)C(=O)c1ccco1 | -9.19
32 | OCCN1CCN(Cc2cc3c(cc2Br)OCCO3)CC1 | 20.1
33 | CC(C)n1cnnc1CN(C)C(=O)c1cccnc1O | -4.11
34 | CC(C)c1nn(C)c(N(C)C)c1CNC1CCc2cc(F)ccc21 (centres undefined) | 5.83
35 | Cc1ccc(CN(CC(=O)NCC2CCOC2)c2ccc(F)cc2)o1 (centres undefined) | -3.8
36 | CN1C(=O)CC[C@]12CC[C@@H](NC(=O)NCc1cccnc1)CC2 | -4
37 | Cc1cccc(-c2nc(CN3CCc4cncnc4C3)no2)c1 | -4.67
38 | CN(C)c1ncccc1CNC(=O)N1CCN(C)c2ccccc2C1 | -8.8
39 | Cc1nc(C(C)(C)NC(=O)Nc2cccc(C#N)c2)no1 | -2.69
40 | CNC(=O)c1cc2c(nc1NCC(C)C)CCN(c1ncccn1)CC2 | 4.12
41 | Cc1nc(CCN2CCCCC2)n(-c2ccc(F)cc2)n1 | 16.5
42 | CCCNc1cc(C(=O)N2CCOCC2)nc(C)n1 | -4.28
43 | CN(C)[C@@H]1C[C@@H](CO)N(C(=O)Nc2cccc(F)c2F)C1 | 19.1
44 | CN(CCc1ccccn1)c1cnn(C)c(=O)c1Br | -11.5
45 | CC(C)c1cc(NC(=O)CN2CCC(N3CCCCC3)CC2)on1 | -1.37
46 | COc1ccc(-n2nnc(C(=O)O)c2-c2ccccn2)cc1 | -14.5

Row | SMILES | cytotoxicity at 70.5 h [%]
47 | CCN(CC)CCNCc1cc(O)c2cc(C)ccc2n1 | -11.3
48 | Cc1cc(CN2C[C@@H]3COC[C@]3(CNC(=O)c3ccsc3)C2)no1 | -8.24
49 | C[S+]([O-])CCNC(=O)N1CCN(c2cc(F)ccc2F)CC1 (centres undefined) | 13
50 | Cc1nnsc1C(=O)NCc1nn(C2CCCC2)c2c1CCCC2 | -5.38
51 | O=C(NCCn1ccnc1-c1cc2n(n1)CCNC2)c1ccc(F)cc1 | 2.16
52 | CCn1cc(NC(=O)NCCc2ccc3c(c2)OCCO3)cn1 | -6.54
53 | CCN(CC)S(=O)(=O)c1ccc(C(=O)NC(C)(C#N)C2CC2)cc1 (centres undefined) | 19.1
54 | CCc1nnc2n1CCN(CC(=O)N1CCc3ccccc3C1)C2 | 28.5
55 | Fc1ccc(N2CCCN(Cc3ccc(-c4cc[nH]n4)o3)CC2)cc1 | -0.367
56 | CNc1nc(C(=O)N2CCN(c3ccc(Cl)c(Cl)c3)CC2)cs1 | -6.48
57 | CC(=O)c1ccc(C(=O)N2C[C@@H]3CC[C@H](C2)N(Cc2ccccc2)C3)s1 | 4.96
58 | O=C(Nc1cnn(CC(=O)N2CCCCO2)c1)c1ccsc1 | -2.35
59 | Cc1cc(F)c(S(=O)(=O)NCCCN2CCC(O)CC2)cc1F | 7.32
60 | O=C(COCCOc1ccccc1)Nc1ccnn1CC1CCOC1 (centres undefined) | -21.2
61 | O=C(NCCSC1CCCC1)c1cnccn1 | 29.4
62 | CCC(CO)N(Cc1ccncc1)Cc1c[nH]nc1-c1ccc(F)cc1 (centres undefined) | -7.22
63 | Cc1cnn(CC2CCCN2C(=O)CCc2cscn2)c1 (centres undefined) | -13.6
64 | Cc1ccc(CN2CCO[C@H]3[C@H](OCc4cccnc4)CC[C@@H]32)o1 | 36.8
65 | CCc1nc(C2CCCN(C(=O)c3cc(C(C)C)[nH]n3)C2)no1 (centres undefined) | -3.59
66 | Cc1noc(-c2ccc(N(C)Cc3cccnc3)nc2)n1 | -15.4
67 | Cc1cn[nH]c1C1COCCN1S(=O)(=O)c1cn[nH]c1 (centres undefined) | -0.517
68 | Cc1csc(CN2CC[C@H]3O[C@H](C(=O)Nc4cccnc4)CC[C@H]32)n1 | 8.96
69 | CCN(C)c1ncnc2c1CCN(CC1CCOC1)CC2 (centres undefined) | -8.27

Row | SMILES | cytotoxicity at 70.5 h [%]
70 | CCOc1ccccc1-c1noc(CN2CC(n3cccn3)C2)n1 | -14.4
71 | CS(=O)(=O)c1cn[nH]c1C1CCCCN1C(=O)Cc1cccnc1 (centres undefined) | 5.76
72 | CO[C@H]1CCN(Cc2cnn(C)c2)[C@@H]2CN(Cc3ccncc3)C[C@H]12 | -6.62
73 | OCCNc1nc(NCCc2ccccc2)nc2nccnc12 | -1.57
74 | Cc1cccc(CO[C@@H]2CC[C@H]3[C@H]2OCCN3Cc2nccs2)n1 | -0.937
75 | CN(C)C(=O)COC1COC2(CCN(c3ncccn3)CC2)C1 (centres undefined) | -7.32
76 | O=C(c1coc(CN2CCN(c3ccccc3F)CC2)n1)N1CCCC1 | 5.68
77 | CCN(Cc1nc(C)no1)C(=O)C1CC(=O)N(Cc2ccccn2)C1 (centres undefined) | -13.9
78 | CCCn1nc2c(cc1=O)CN(CCS(C)(=O)=O)CC2 | 9.12
79 | COc1ccc(C(=O)NCC(c2cccn2C)N2CCCC2)c(OC)c1 (centres undefined) | 14.2
80 | CN1CCCC2(CCN(C(=O)CCn3cncn3)C2)C1=O (centres undefined) | -10.5
81 | CN1CCOC(CNC(=O)C2(c3cccc(C(F)(F)F)c3)CCCC2)C1 (centres undefined) | 6.99
82 | COCC(=O)N1CCN(Cc2cccnc2)c2ncccc2C1 | 1.38
83 | O=C1CCCN1CCC1CCN(C2CCC3(CCNCC3)CC2)CC1 | -6.34
84 | CS(=O)(=O)N1CCC2(CN(C(=O)c3cccnc3)C2)C1 | -2.66
85 | Cc1cc(C)n(-c2ccccc2NC(=O)NCCCN(C)S(C)(=O)=O)n1 | 5.58
86 | Cc1csc(CCNc2ccc(C#N)cc2F)n1 | -10.7
87 | O=C(NCCNc1ncccn1)c1cnc(-c2ccccc2)nc1 | -2.38
88 | Cc1ccnc(NC(=O)C2CCN(CCCn3ccnc3C)CC2)c1 | -13
89 | OC1CCN(Cc2ccnc(-c3cccnc3)n2)CC1 | -7.13
90 | Cc1n[nH]c(SCC(=O)NC(c2ccccn2)C(C)C)n1 (centres undefined) | -0.841
91 | Cc1cc(CNc2ccc(C(F)(F)F)cc2)no1 | -7.03
92 | O=C1O[C@@H]2CN(C3CCOCC3)C[C@@H]2N1CCCc1ccc(F)cc1 | 14.2

Row | SMILES | cytotoxicity at 70.5 h [%]
93 | CC(=O)Nc1cccc2c1ccn2CC(=O)Nc1nc[nH]n1 | -2.28
94 | CCN(c1ccccc1C(=O)O)S(=O)(=O)c1cccc2cccnc12 | 1.89
95 | Cc1c(C2N3C[C@]4(C(C)C)CN2C[C@](C(C)C)(C3)C4=O)[nH]c(=O)[nH]c1=O (some centres undefined) | -4.97
96 | Cc1nn(C)c2c(N3CCN(C(=O)NC4CCCCC4)CC3)ncnc12 | 4.87
97 | COc1ccc(Br)c(C(=O)NC(CC(=O)O)c2cccs2)c1 (centres undefined) | -11.5
98 | O=C([C@@H]1CCCN1c1nccc(Nc2ccccc2)n1)N1CCCCC1 | 20.9
99 | CN1CCC(Nc2cc(Cl)ccc2OCC(F)(F)F)C1=O (centres undefined) | -1.29
100 | Cc1oncc1C(=O)N1CC2CC1(C(=O)N(C)C)C2 | -6.15
101 | O=C(NCCc1c[nH]cn1)c1n[nH]c2c1CCC2 | -8.54
102 | O=C(CC1CCCO1)NS(=O)(=O)Cc1cc(-c2ccccc2)no1 (centres undefined) | 20.6
103 | c1cc(CCN2CCCC2CN2CCCC2)ccn1 (centres undefined) | 30
104 | CCCn1nc(C)c(CNS(=O)(=O)NCc2ccccc2)c1C | -12.7
105 | O=C(NCCCO)NCCc1cc(F)ccc1F | -0.605
106 | c1csc(CCNC2CCc3ncnn3C2)c1 (centres undefined) | 0.839
107 | O=C1OCCN1Cc1ncnn1Cc1c(F)cccc1Cl | 11.9
108 | CC(=O)N1CCC(NC(=O)N2CCCC2c2ccsc2)CC1 (centres undefined) | 6.84
109 | O=S(=O)(c1ccccc1N1CC(n2cccn2)C1)C(F)(F)F | 1.67
110 | CCOc1ncccc1CN1Cc2ncccc2C1=O | -6.82
111 | NC(=O)c1cc(C2CCCN(CCOCC3CC3)C2)n[nH]1 (centres undefined) | -1.45
112 | CN(C)c1ccc(CNC(=O)NCCc2cn3ccccc3n2)cn1 | -3.45
113 | O=C1CC(c2ccsc2)c2snc(C(=O)O)c2N1 (centres undefined) | 8.48
114 | Cc1cc(Cl)c(C)c(S(=O)(=O)N2CCN(Cc3ccccn3)CC2)c1Cl | 40.2

Source: ChEMBL document CHEMBL3507680, “University of Dundee, Gates Library screen for HepG2 cell viability”
